Measurements published in US20250325689A1, “ANTIBODY-MULTIDRUG CONJUGATE” (UBE CORPORATION, priority 2022, published 2025).
Starred links: 1 amine or outer side, 2 acyl side, 3 side chain; linkers in the order of their positions; H or OH if unused. Non-standard residues stand in square brackets, D forms with d. Residues, ends and D or L forms follow the SMILES beside them. *: point of attachment. Dolaproine = CO[C@@H]([C@@H]1CCCN1)[C@@H](C)C(=O)O; X2 = C[C@@H](N[*:1])[C@@H](OC(=O)[*:2])c1ccccc1; Dil = CC[C@H](C)[C@H](NC)[C@@H](CC(=O)O)OC; X4 = OCC1OC(n2cc(CN*)nn2)C(O)C(O)C1O; NMeV = CN[C@H](C(=O)O)C(C)C

Molecular target: T1, porcine tubulin (Sus scrofa, UniProt P02550+P02554)
T1 construct: purchased Cytoskeleton, Inc. BKO11P
Test: Tubulin polymerization inhibition test
Format: biochemical
Details: 37° C., fluorescence measured for 60 minutes
Method: For measuring the tubulin polymerization inhibitory action, Tubulin Polymerization Assay Kit (manufactured by Cytoskeleton, Inc., BKO11P) was used. A PIPES buffer containing porcine tubulin, GTP, MgCl2, EGTA, Glycerol, and a fluorescent reporter was prepared under ice-cooling as a reaction solution. The reaction solution was ice-cooled until it was used. A test compound solution was prepared by an aqueous solution containing 1.5% DMSO, and added to a 96 well plate (manufactured by Corning Inc., 3686) at 5 μL/well. The reaction solution was added thereto at 50 μL/well, the plate was placed in a microplate reader (FlexStation 3, manufactured by Molecular Device, LLC) in which the internal temperature was set to 37° C. in advance, and the fluorescence intensity measurement (excitation wavelength: 360 nm, detection wavelength: 420 nm) of each well was started. The fluorescence intensity was measured once every minute, and the measurement was continued for 60 minutes.
The tubulin polymerization inhibition rate (%) was calculated by the following equation. […]

T1 sequence (P02550 whole entry): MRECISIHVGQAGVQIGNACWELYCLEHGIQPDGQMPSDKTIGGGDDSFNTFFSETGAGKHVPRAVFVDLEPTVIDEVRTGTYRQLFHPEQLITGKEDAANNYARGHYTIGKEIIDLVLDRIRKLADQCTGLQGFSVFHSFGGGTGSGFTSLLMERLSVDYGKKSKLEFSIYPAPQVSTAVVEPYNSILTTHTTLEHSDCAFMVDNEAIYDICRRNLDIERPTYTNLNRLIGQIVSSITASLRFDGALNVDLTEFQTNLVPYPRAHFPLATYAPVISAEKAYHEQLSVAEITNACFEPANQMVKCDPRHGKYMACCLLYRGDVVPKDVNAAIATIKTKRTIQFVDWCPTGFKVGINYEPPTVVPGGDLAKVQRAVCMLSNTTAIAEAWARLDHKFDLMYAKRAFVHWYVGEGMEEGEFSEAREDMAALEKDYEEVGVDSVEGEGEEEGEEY
T1 sequence (P02554 whole entry): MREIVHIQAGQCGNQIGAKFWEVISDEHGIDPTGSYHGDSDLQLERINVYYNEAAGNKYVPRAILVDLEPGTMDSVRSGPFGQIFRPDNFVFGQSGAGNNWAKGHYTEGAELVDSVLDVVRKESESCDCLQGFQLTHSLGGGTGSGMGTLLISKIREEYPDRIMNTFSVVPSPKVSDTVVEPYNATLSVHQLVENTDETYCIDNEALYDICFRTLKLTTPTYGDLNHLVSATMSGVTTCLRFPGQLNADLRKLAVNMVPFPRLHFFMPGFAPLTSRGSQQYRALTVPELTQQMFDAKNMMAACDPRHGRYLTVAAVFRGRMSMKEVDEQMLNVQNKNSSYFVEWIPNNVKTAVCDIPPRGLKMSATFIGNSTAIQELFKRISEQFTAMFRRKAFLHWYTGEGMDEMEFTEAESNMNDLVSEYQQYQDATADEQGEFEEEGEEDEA

SMILES: CC[C@H](C)[C@@H]([C@@H](CC(=O)N1CCC[C@H]1[C@H](OC)[C@@H](C)C(=O)N[C@H](C)[C@@H](OC(=O)NCc1cn(C2OC(CO)C(O)C(O)C2O)nn1)c1ccccc1)OC)N(C)C(=O)[C@@H](NC(=O)[C@@H](NC)C(C)C)C(C)C (stereo partly shown) [Example U-018] (H-[NMeV]V[Dil][Dolaproine][X2]-X4)
- IC50: ≤ 3 µM
